Assay results taken from PMC12156367, “Synthesis and Biological Evaluation of Seco-Coumarin/Furoxan Hybrids as Potent Anti-Tumor Agents to Overcome Multidrug Resistance via Multiple Mechanisms” (Molecules, 2025).

Experiments:
[1] = system: MCF-7/ADR (doxorubicin-resistant human breast cancer cell line); assay: In vitro antiproliferative assay (MTT, 48 h), MCF-7/ADR; type: cell-based
Source text: (§1) The MDA-MB-468 cell line was procured from the Cell Bank of the Chinese Academy of Sciences. The MCF-7, MCF-7/ADR, MCF-10A, and MDA-MB-231 cell lines were kindly provided by Professor Xianyi Sha (Fudan University, Shanghai, China). The HUVEC cells were kindly provided by Associate Professor Hulie Zeng (Fudan University, Shanghai, China). The MDA-MB-468, MDA-MB-231, MCF-7, MCF-10A, and HUVEC cells were cultivated in DMEM (Service Biotechnology, China) supplemented with 10% FBS (Capricorn Scientific, Germany) and 1% penicillin-streptomycin (Meilunbio, Dalian, China). For the MCF-7/ADR cells, they were cultured in RPMI-1640 (Service Biotechnology, Wuhan, China), containing 10% FBS and 1% penicillin-streptomycin. Additionally, 500 ng/mL of doxorubicin (Sigma-Aldrich, Saint Louis, MO, USA) was incorporated into the RPMI-1640 culture medium to keep drug resistance. All cell lines were cultured in a humidified incubator at 37 °C with a 5% CO2 atmosphere.
Following harvest during logarithmic growth, cells were plated in 96-well culture plates at an initial density of 5000 cells per well. Incubate the plate overnight at 37 °C to allow the cells to adhere. Following the overnight incubation, introduce the compound at the predetermined concentration into each well, and then return the plate to the incubator for an additional 48 h culture period. After the 48 h treatment, carefully aspirate the drug-containing medium from each well. Subsequently, add 150 μL of 0.5 mg/mL MTT (Beyotime, China) solution to each well. Protect the plate from light and incubate it at 37 °C for 4 h to allow the formation of formazan crystals. Finally, add 150 μL of DMSO (Sinopharm, China) to each well and gently mix to ensure complete dissolution of the formazan crystals. The OD value at 570nm was measured using a microplate reader (Thermo Fisher, Waltham, MA, USA). Cell proliferation inhibition was determined using the following formula:Inhibition (%) = [(ODDMSO − ODcompd.)/(ODDMSO − ODblank)] × 100
GraphPad Prism software 9 was used to calculate the IC50 values. The specific calculation process is as follows: Firstly, we input the experimental data into Prism. The data include the concentrations of the experimental compounds and the corresponding biological response values. For instance, in the cell experiment, we recorded the cell viability values at different drug concentrations. Subsequently, we select the option of “Dose–Response–Nonlinear Regression” in the “Analyze” menu for curve fitting. Generally speaking, we use the model of “[Inhibitor] vs. normalized response—Variable slope”. The Prism software fits the data through the nonlinear least squares method and finds the parameter values that can minimize the difference between the model’s predicted values and the actual data. After completing the curve fitting, the software will directly provide the estimated values and confidence intervals of the IC50 value and other relevant parameters. Meanwhile, it will also offer goodness-of-fit indices, such as the correlation coefficient, to evaluate the quality of the fitting. Through the above method, we can accurately calculate the IC50 value, thereby assessing the intensity of the inhibitory or activating effect of the compound on the biological system.

[2] = system: HUVEC (human umbilical vein endothelial cell lines); assay: Cytotoxicity screen in HUVEC; type: cell-based; conditions: 500 nM concentration
Source text: as §1
Following harvest during logarithmic growth, cells were plated in 96-well culture plates at an initial density of 5000 cells per well. Incubate the plate overnight at 37 °C to allow the cells to adhere. […] The OD value at 570nm was measured using a microplate reader (Thermo Fisher, Waltham, MA, USA). Cell proliferation inhibition was determined using the following formula:Inhibition (%) = [(ODDMSO − ODcompd.)/(ODDMSO − ODblank)] × 100 […]

[3] = system: GPX4 in MCF-7/ADR; assay: Western blot of GPX4; type: cell-based, human; conditions: after treatment of 9e
Description: MCF-7/ADR (2 × 10^5 cells/well) were plated in 6-well plates. After 24 h treatment with 9e (20 nM), cell lysates were prepared using RIPA buffer (Beyotime, Shanghai, China; 30 min, ice), then centrifuged (12,000 rpm, 10 min, 4 °C) to harvest protein supernatants. Protein concentrations were measured by BCA assay (Beyotime, Shanghai, China). The supernatants were then loaded and transferred onto PVDF membranes (Millipore, Billerica, MA, USA) for western blot. The blots were developed with ECL chemiluminescent solution (Meilunbio, Dalian, China). Commercially purchased antibodies include P-gp (Abcam, Cambridge, UK; ab170904), Caspase 3 (Proteintech, Wuhan, China; 19677-1-AP), Bcl-2 (Servicebio, Wuhan, China; GB113375-100), LC3 (Abcam, Abcam, Cambridge, UK; ab192890), P62 (Cell Signaling Technology, Danvers, MA, USA; 5114 T), Beclin (ABclonal, Wuhan, China; A7353), GPX4 (ABclonal, Wuhan, China; A11243), LAMP1 (Cell Signaling Technology, Danvers, MA, USA;15,665 T), GAPDH (Servicebio, Wuhan, China; GB11002-100), and β-Actin (Servicebio, Wuhan, China;GB11001-100). The secondary antibodies conjugated with horseradish peroxidase (HRP) were from Abmart.

SMILES: COc1ccc(CCC(=O)c2ccc(OCCOc3no[n+]([O-])c3S(=O)(=O)c3ccccc3)cc2OC)cc1 [Compound 9e, 4-(2-(3-methoxy-4-(3-(4-methoxyphenyl)propanoyl)phenoxy)ethoxy)-3-(phenylsulfonyl)-1,2,5-oxadiazole 2-oxide]
- IC50 ([1]; Homo sapiens, NCI/ADR-RES, MTT, 48 h, mean of three determinations): 3.02 nM
- Selectivity Ratio IC50(MCF-7)/ IC50(MCF-7/ADR) ([1]; collateral sensitivity): 1402.0
- cell survival probability in HUVEC [2]: over 90%
- expression of GPX4 [3]: clearly decreased
